In ChEMBL document CHEMBL3885861, “Open TG-GATES”:

Species on record: Rattus norvegicus
Assay: Open TG-GATES - Regimen: Single
Format: toxicity, organism-based, Sprague-Dawley
Design: regimen Single, gender Male, age 6 weeks
Details: in vivo, po, route gavage; for TP / gamma-GTP / ALP / ALT / AST / BUN / CRE / Ca / Cl / DBIL / GLC / IP / K / LDH / Na / PL / RALB / TBIL / TC / TG: tissue Plasma; for APTT / Bas / Eos / Fbg / Hb / Ht / Lym / MCH / MCHC / MCV / Mono / Neu / PT / Plat / RBC / Ret / WBC: tissue Blood; for KIDNEY_L / KIDNEY_R / KIDNEY_TOTAL: tissue Kidney; for LIVER: tissue Liver
[1] = 300 mg/kg, 24 h, dose level Low
[2] = 1000 mg/kg, 3 h, dose level Middle
[3] = 1000 mg/kg, 6 h, dose level Middle
[4] = 1000 mg/kg, 9 h, dose level Middle
[5] = 1000 mg/kg, 24 h, dose level Middle

In the case of `CCOc1ccc(NC(C)=O)cc1` [PHENACETIN], the TP [1] is reported as 5.7 g/dL, the gamma-GTP [1] is reported as 1.2 IU/L and the TERMINAL_BW [2] is reported as 211.4 g. The APTT [2] was 16.8 s, the Bas [2] was 0% and the Eos [2] was 1%. It also gave a Fbg [2] of 302.8 mg/dL, a Hb [2] of 13.4 g/dL and a Ht [2] of 39.6%. It also gave a Lym [2] of 75.6%, an MCH [2] of 20.9 pg and an MCHC [2] of 33.9%. For the same compound, the MCV [2] was 61.6 fL, the Mono [2] was 2.8% and the Neu [2] was 20.4%. For the same compound, the PT [2] was 13.9 s, the Plat [2] was 119.7 x10_4/uL and the RBC [2] was 643.4 x10_4/ul. It also gave a Ret [2] of 8.8%, a WBC [2] of 62.5 x10_2/uL and a KIDNEY_L [2] of 0.9 g. The KIDNEY_R [2] was 0.9 g, the KIDNEY_TOTAL [2] was 1.8 g and the LIVER [2] was 9.2 g. For the same compound, the ALP [2] was 1732.2 IU/L, the ALT [2] was 35 IU/L and the AST [2] was 69 IU/L. The BUN [2] was 9.4 mg/dL, the CRE [2] was 0.1 mg/dL and the Ca [2] was 11 mg/dL. It also gave a Cl [2] of 100.4 meq/L, a DBIL [2] of 0 mg/dL and a GLC [2] of 232 mg/dL. For the same compound, the IP [2] was 10.8 mg/dL, the K [2] was 3.6 meq/L and the LDH [2] was 64.8 IU/L. It also gave a Na [2] of 139.8 meq/L, a PL [2] of 150.8 mg/dL and an RALB [2] of 2.6 g/dL. For the same compound, the TBIL [2] was 0.032 mg/dL, the TC [2] was 87 mg/dL and the TG [2] was 50.6 mg/dL. The TP [2] was 5.5 g/dL, the gamma-GTP [2] was 1.4 IU/L and the TERMINAL_BW [3] was 206.1 g. For the same compound, the APTT [3] was 18 s, the Bas [3] was 0% and the Eos [3] was 0.2%. It also gave a Fbg [3] of 311.4 mg/dL, a Hb [3] of 13.9 g/dL and a Ht [3] of 40.7%. For the same compound, the Lym [3] was 73.2%, the MCH [3] was 21.1 pg and the MCHC [3] was 34.2%. The MCV [3] was 61.6 fL, the Mono [3] was 2% and the Neu [3] was 24.2%. It also gave a PT [3] of 14.2 s, a Plat [3] of 124.9 x10_4/uL and an RBC [3] of 661 x10_4/ul. For the same compound, the Ret [3] was 9%, the WBC [3] was 54.6 x10_2/uL and the KIDNEY_L [3] was 0.9 g. The KIDNEY_R [3] was 0.9 g, the KIDNEY_TOTAL [3] was 1.9 g and the LIVER [3] was 8.8 g. For the same compound, the ALP [3] was 1388 IU/L, the ALT [3] was 40.4 IU/L and the AST [3] was 76 IU/L. It also gave a BUN [3] of 11.2 mg/dL, a CRE [3] of 0.1 mg/dL and a Ca [3] of 10.9 mg/dL. The Cl [3] was 102.6 meq/L, the DBIL [3] was 0 mg/dL and the GLC [3] was 188.4 mg/dL. For the same compound, the IP [3] was 9.8 mg/dL, the K [3] was 4 meq/L and the LDH [3] was 73.6 IU/L. The Na [3] was 139.2 meq/L, the PL [3] was 151.8 mg/dL and the RALB [3] was 2.6 g/dL. It also gave a TBIL [3] of 0.04 mg/dL, a TC [3] of 94.2 mg/dL and a TG [3] of 23.4 mg/dL. The TP [3] was 5.6 g/dL, the gamma-GTP [3] was 1.2 IU/L and the TERMINAL_BW [4] was 205.3 g. It also gave an APTT [4] of 17.2 s, a Bas [4] of 0% and an Eos [4] of 1%. The Fbg [4] was 302.6 mg/dL, the Hb [4] was 14 g/dL and the Ht [4] was 40.8%. The Lym [4] was 76.2%, the MCH [4] was 21.1 pg and the MCHC [4] was 34.3%. The MCV [4] was 61.4 fL, the Mono [4] was 3.4% and the Neu [4] was 18.6%. It also gave a PT [4] of 14.1 s, a Plat [4] of 120 x10_4/uL and an RBC [4] of 664.6 x10_4/ul. It also gave a Ret [4] of 8.5%, a WBC [4] of 49.5 x10_2/uL and a KIDNEY_L [4] of 0.9 g. The KIDNEY_R [4] was 0.9 g, the KIDNEY_TOTAL [4] was 1.9 g and the LIVER [4] was 8.8 g. The ALP [4] was 1337.2 IU/L, the ALT [4] was 38.6 IU/L and the AST [4] was 70.2 IU/L. For the same compound, the CRE [4] was 0.1 mg/dL, the Ca [4] was 10.9 mg/dL and the Cl [4] was 101.6 meq/L. For the same compound, the DBIL [4] was 0.006 mg/dL, the GLC [4] was 205.2 mg/dL and the IP [4] was 9 mg/dL. The K [4] was 3.9 meq/L, the LDH [4] was 82 IU/L and the PL [4] was 160.6 mg/dL. It also gave an RALB [4] of 2.6 g/dL, a TBIL [4] of 0.046 mg/dL and a TC [4] of 95.2 mg/dL. It also gave a TG [4] of 32.6 mg/dL, a TP [4] of 5.6 g/dL and a gamma-GTP [4] of 1.2 IU/L. It also gave a TERMINAL_BW [5] of 204.2 g, an APTT [5] of 17 s and a Bas [5] of 0%. It also gave an Eos [5] of 1%, a Fbg [5] of 291.6 mg/dL and a Hb [5] of 13.4 g/dL. The Ht [5] was 40.1%, the Lym [5] was 69% and the MCH [5] was 20.5 pg. It also gave an MCHC [5] of 33.5%, an MCV [5] of 61.2 fL and a Mono [5] of 3.2%. The Neu [5] was 26.2%, the Plat [5] was 127.8 x10_4/uL and the RBC [5] was 654.4 x10_4/ul. The Ret [5] was 7.5%, the WBC [5] was 82.6 x10_2/uL and the KIDNEY_L [5] was 1 g. It also gave a KIDNEY_R [5] of 1 g, a KIDNEY_TOTAL [5] of 1.9 g and an LIVER [5] of 8.7 g. The ALP [5] was 1673.4 IU/L, the ALT [5] was 53.6 IU/L and the AST [5] was 118.8 IU/L. The BUN [5] was 13.6 mg/dL, the CRE [5] was 0.2 mg/dL and the Ca [5] was 10.9 mg/dL. The Cl [5] was 105 meq/L, the DBIL [5] was 0.038 mg/dL and the GLC [5] was 167 mg/dL. For the same compound, the IP [5] was 9.2 mg/dL, the K [5] was 4.6 meq/L and the LDH [5] was 202.2 IU/L. It also gave a Na [5] of 141.6 meq/L, a PL [5] of 166.6 mg/dL and an RALB [5] of 2.6 g/dL. The TBIL [5] was 0.052 mg/dL.
